Assay results as given in paper PMC9877316, “Identification of a novel P2X7 antagonist using structure-based virtual screening” (Frontiers in Pharmacology, 2023).
Entries after “also recorded” stand apart in the source; their conditions may differ. Read-outs that look alike come from different tables or passages of the source.

Tests used:
human P2X7 = target: T1, human P2X7 (Homo sapiens, UniProt Q99572); assay: ATP-induced YoPro-1 dye uptake assay, human P2X7; type: cell-based; details: for reduction in ATP-induced dye uptake at human P2X7: 30 µM compound, 300 μM ATP
T1 construct: expressed in transfected cells; host or cells: 1321N1 astrocytoma cells (compounds 1-17); HEK-293 cells stably expressing human P2X7 (gift of E. Adinolfi)
T1 sequence (Q99572 1-595): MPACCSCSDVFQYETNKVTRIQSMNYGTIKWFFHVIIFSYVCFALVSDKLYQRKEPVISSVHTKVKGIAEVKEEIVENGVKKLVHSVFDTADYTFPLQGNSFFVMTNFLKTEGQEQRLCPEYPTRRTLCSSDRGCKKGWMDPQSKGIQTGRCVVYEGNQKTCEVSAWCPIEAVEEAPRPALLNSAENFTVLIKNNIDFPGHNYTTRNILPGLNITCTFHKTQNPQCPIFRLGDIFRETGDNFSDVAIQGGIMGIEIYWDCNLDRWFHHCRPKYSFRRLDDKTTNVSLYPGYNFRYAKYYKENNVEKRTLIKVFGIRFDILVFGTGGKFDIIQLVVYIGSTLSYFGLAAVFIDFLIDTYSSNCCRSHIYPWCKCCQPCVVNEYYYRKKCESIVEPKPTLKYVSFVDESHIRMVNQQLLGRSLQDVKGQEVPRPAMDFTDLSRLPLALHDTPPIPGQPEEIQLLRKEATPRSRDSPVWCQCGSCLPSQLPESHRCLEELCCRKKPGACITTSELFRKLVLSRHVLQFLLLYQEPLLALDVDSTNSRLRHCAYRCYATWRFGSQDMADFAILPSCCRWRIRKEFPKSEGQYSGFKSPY
Description: (§1) 1321N1 astrocytoma cells and HEK-293 cells were cultured (at 37°C, 5% CO2) in Dulbecco’s modified Eagle’s medium (DMEM/F-12 with Glutamax) supplemented with 10% foetal bovine serum (FBS) and 200 unit/ml of penicillin and streptomycin antibiotics (Fisher Scientific). For stable cell line generation, cells were transfected using FuGene HD Transfection Reagent (Promega) according to the manufacturer’s protocol with plasmids encoding either human P2X4 with a C-terminal (His)10 tag ([Young et al., 2008]), human P2X7 with a C-terminal EYMPME tag (kindly provided by R.A. North) or rat P2X7 C-terminally tagged with a GFP-(His)8 tag, generated by PCR amplification of the coding sequence for rat P2X7 from a pcDNA-based expression vector ([Young et al., 2007]), adding XhoI and EcoRI sites at the 5′- and 3′- ends respectively, followed by restriction digestion and ligation into a zebrafish P2X4-GFP expression vector based on pEGFP-C1 (kindly provided by Eric Gouaux; [Kawate and Gouaux, 2006]) to replace the zebrafish P2X4 coding region with rP2X7. Transfected clones were grown in DMEM/F-12 with Glutamax medium supplemented with G-418 (Geneticin®, Fisher Scientific), 600 μg/ml and 150 μg/ml during selection and maintenance respectively. […] HEK-293 cells stably expressing human P2X7 ([Adinolfi et al., 2010]) were a kind gift from Elena Adinolfi.
(§2) Cells were plated as for the calcium influx assay (Section 2.4). Culture medium was replaced with low divalent cation containing extracellular solution (ECS-LD; 147 mM NaCl, 10 mM HEPES, 13 mM Glucose, .2 mM CaCl2, 2 mM KCl. pH = 7.4 in MilliQ water) and 5 μM Yopro-1. […] The baseline was measured with a BMG Clariostar instrument for 5–10 cycles, followed by addition of ATP (or BzATP) and recording for at least 30 further cycles (approx. 1 min per data point). The collected responses were normalized to the first data-point recorded after ATP addition. The initial gradient of the dye uptake curve was used to calculate the response to ATP.
The antagonist activity of the 17 compounds (applied at 10 µM) was assayed initially on 1321N1 astrocytoma cells stably expressing human P2X4 receptors by measuring the ATP-induced (applied at 1.2 µM) increase in Fluo-4 fluorescence due to calcium influx via P2X4, using 2 µM BX430 as a positive control (Figure 1A). […] The ATP-induced rate of uptake of YoPro-1 dye was measured upon application of at 300 µM ATP, using .1 µM A740003 as a positive control (Figure 1B).
A small library of 16 commercially available compounds was selected according to the presence of the same scaffold as GP-25, (70% similarity, Tanimoto index) and/or presence of at least one functional group we hypothesized could contribute to GP-25 activity (e.g. carboxylic acid, halogen substituent to the aromatic ring, ester, etc.) (Compounds 18–33; Table 1). […] Although the number of compounds tested was limited by their availability via a commercial source, the numerous ‘hits’ allowed for a basic structure-relationship (SAR) analysis.

rat P2X7 = target: T2, rat P2X7 (Rattus norvegicus, UniProt Q64663); assay: ATP/BzATP-induced YoPro-1 dye uptake assay, rat P2X7; type: cell-based; details: for inhibition at 30 µM: approx. % inhibition at 30 μM compound, 300 µM ATP, rat P2X7-GFP, read-out: % Inhibition at rP2X7; for antagonist activity at rat P2X7: 30 µM compound, 300 μM ATP
T2 construct: expressed in transfected cells; host or cells: HEK-293 cells stably expressing rat P2X7-GFP (patch clamp)
T2 sequence (Q64663 1-595): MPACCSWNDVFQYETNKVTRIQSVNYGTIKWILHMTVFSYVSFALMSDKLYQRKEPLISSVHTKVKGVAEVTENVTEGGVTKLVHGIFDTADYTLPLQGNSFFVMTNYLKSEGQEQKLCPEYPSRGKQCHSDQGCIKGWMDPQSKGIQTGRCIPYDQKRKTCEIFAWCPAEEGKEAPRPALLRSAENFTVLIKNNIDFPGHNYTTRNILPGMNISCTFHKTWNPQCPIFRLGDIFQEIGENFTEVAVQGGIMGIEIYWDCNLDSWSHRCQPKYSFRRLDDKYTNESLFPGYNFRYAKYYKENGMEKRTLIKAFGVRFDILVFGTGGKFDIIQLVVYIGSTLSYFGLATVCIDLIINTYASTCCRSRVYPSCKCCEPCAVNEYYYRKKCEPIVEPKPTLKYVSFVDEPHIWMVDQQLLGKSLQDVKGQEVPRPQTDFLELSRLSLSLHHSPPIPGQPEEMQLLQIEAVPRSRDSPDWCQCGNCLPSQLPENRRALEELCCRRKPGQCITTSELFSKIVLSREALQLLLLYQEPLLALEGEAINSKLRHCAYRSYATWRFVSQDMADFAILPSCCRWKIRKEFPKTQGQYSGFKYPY
Description: as §1, §2
In order to confirm GP-25 as a competitive (orthosteric) antagonist, BzATP concentration-response curves (ranging between 300 μM and .03 µM) were constructed for rat P2X7-GFP in the YoPro-1 uptake assay in the presence of increasing concentrations of GP-25 (Figure 3A).

Solubility observations = type: physicochemical
[1] = P2X7, approx. % inhibition at 30 μM compound, 300 µM ATP, YoPro-1 uptake, 1321N1 (1-17) or HEK (18-33) cells, read-out: % Inhibition at hP2X7
[2] = agonist concentration-response, YoPro-1 uptake
[3] = P2X7, 30 µM compound, 300 µM ATP, YoPro-1, read-out: inhibition of response at human P2X7

SMILES	inhibition at 30 µM (human P2X7; [1]) [%]	inhibition at 30 µM (rat P2X7; YoPro-1 uptake) [%]	also measured
COC(=O)C1=C(C)NC2=C(C(=O)c3ccccc32)C1c1ccc(-c2ccccc2[N+](=O)[O-])o1 (stereo not drawn) [Compound 23]	30	< 0	reduction in ATP-induced dye uptake at human P2X7 (human P2X7): statistically significant reduction
CC(=O)C1=C(C)NC(=S)NC1c1cc(Br)ccc1OCC(=O)O (stereo not drawn) [Compound 33]	18	16	
CC(=O)c1ccc(N/N=C(\C#N)C(=O)NCc2ccccc2)cc1 [Compound 6]	< 10		
Cc1ccc(C(=O)C2=C(O)C(=O)N(CC3CCCO3)C2c2cccc(Oc3ccccc3)c2)o1 (stereo not drawn) [Compound 4]	< 10		
Cc1ccc(N2C(S)=C(C#N)C(=O)NC2c2cccs2)cc1 (stereo not drawn) [Compound 5]	< 0		
CCOC(=O)C1=C(C)NC2=C(C(=O)c3ccccc32)C1c1cc(Br)c(OCc2ccc(F)cc2)c(OC)c1 (stereo not drawn) [Compound 24]	12	16	
O=C(O)CSc1nc(SCC(=O)O)c2c3c(sc2n1)CCCC3 [Compound 16]	< 10		
CCSc1nnc(NC(=O)CSc2nnc3c4ccccc4n(C)c3n2)s1 [Compound 7]			solubility (Solubility observations): very low solubility
O=C(NNC(=S)CC(=O)c1cccs1)c1ccc(O)cc1 [Compound 17]	< 10		
CCOC(=O)CN1C(=O)S/C(=C/c2ccc(-c3ccc(C(=O)O)c(Cl)c3)o2)C1=O [Compound 10]			% Inhibition at hP2X7 (human P2X7; approx. % inhibition at 30 μM compound, 300 µM ATP, YoPro-1 uptake, 1321N1 (1-17) or HEK (18-33) cells): — (for compound displaying increased responses vs. control)
CC1(C)CC(=O)C2=C(C1)NC1=C(C(=O)c3ccccc31)C2c1cccc(O)c1 (stereo not drawn) [Compound 30]	27	< 0	
CCSc1nnc2c(n1)OC(c1cc(Br)ccc1OCC(=O)O)Nc1ccccc1-2 (stereo not drawn) [Compound 29]	20	< 0	
O=C(Nc1cc(S(=O)(=O)O)cc2cc(S(=O)(=O)O)cc(O)c12)c1ccccc1 [Compound 1]	41		
COC(=O)C1=C(C)NC2=C(C(=O)c3ccccc32)C1c1ccc(-c2cc([N+](=O)[O-])ccc2Cl)o1 (stereo not drawn) [Compound 22]	69	< 0	reduction in ATP-induced dye uptake at human P2X7 (human P2X7): statistically significant reduction; antagonist activity at rat P2X7 (rat P2X7): no activity; solubility (Solubility observations; listed as GP-50): less soluble than GP-47 or GP-25; also recorded: low solubility
Nc1nc(SCC(=O)NCCO)nc2sc3c(c12)CCCC3 [Compound 3]	< 0		
O=C(O)CCCC(=O)Nc1ccc(CN2CCOCC2)cc1 [Compound 15]	11		

SMILES	inhibition at 30 µM (human P2X7; [1]) [%]	inhibition at 30 µM (rat P2X7; YoPro-1 uptake) [%]	also measured
CCOC(=O)C1=C(C)N(C)C2=C(C(=O)c3ccccc32)C1c1cc(OC)c(OC)c(OC)c1 (stereo not drawn) [Compound 32]	55	19	reduction in ATP-induced dye uptake at human P2X7 (human P2X7): statistically significant reduction; antagonist activity at rat P2X7 (rat P2X7): no activity
Nc1ncnc2c1ncn2[C@@H]1O[C@H](COP(=O)(O)OP(=O)(O)OP(=O)(O)O)[C@@H](O)[C@H]1O [ATP, reference compound]			EC50 (human P2X7; [2]): 184 µM; EC50 (rat P2X7; [2]): 138 µM
CC1(C)CC(=O)C2=C(C1)NC1=C(C(=O)c3ccccc31)C2c1cccnc1 (stereo not drawn) [Compound 28]	32	< 0	reduction in ATP-induced dye uptake at human P2X7 (human P2X7): statistically significant reduction
CN1C2=C(C(=O)CCC2)C(c2cc(Cl)ccc2OCC(=O)O)C2=C1CCCC2=O [Compound 25]	20	< 0	inhibition at 30 µM (human P2X7; [3]): ≤ 25%
COc1ccc(C2C3=C(CCCC3=O)N(CC(=O)O)C3=C2C(=O)CCC3)cc1 [Compound 14]	< 0		inhibition at 30 µM (human P2X7; [3]): ≤ 25%
CCOC(=O)C1=C(C)NC2=C(C(=O)c3ccccc32)C1c1cc(Br)ccc1OCC (stereo not drawn) [Compound 19]	< 0	13	reduction in ATP-induced dye uptake at human P2X7 (human P2X7): completely abolished the activity
COC(=O)C1=C(C)NC2=C(C(=O)c3ccccc32)C1c1cc(OC)c(OC)c(OC)c1 (stereo not drawn) [Compound 31]	29	< 10	
O=C1NC(=O)C(CCc2ccncc2)(c2ccccc2)C(=O)N1 [Compound 8]	< 0		
C=CCN1C(=O)N/C(=C/c2ccc(-c3ccc(C(=O)O)cc3C)o2)C1=O [Compound 11]	25		
CC1(C)CC(=O)C2=C(C1)NC1=C(C(=O)CC(C)(C)C1)C2c1ccccc1OCC(=O)O [Compound 18]	< 0	< 0	inhibition at 30 µM (human P2X7; [3]): ≤ 25%
O=C(O)COc1ccc(Br)cc1C1C2=C(CCCC2=O)NC2=C1C(=O)CCC2 [Compound 26]	22	< 0	inhibition at 30 µM (human P2X7; [3]): ≤ 25%
O=C(O)c1ccccc1NS(=O)(=O)c1ccc2c(c1)C(=O)c1ccccc1C2=O [Compound 2]	38		
O=C(O)COc1ccc(Cl)cc1C1C2=C(CCCC2=O)NC2=C1C(=O)CCC2 [Compound 27]	16	< 0	inhibition at 30 µM (human P2X7; [3]): ≤ 25%
CC1(C)CC(=O)C2=C(C1)N(CC(=O)O)C1=C(C(=O)CC(C)(C)C1)C2c1ccc(OCc2ccccc2)cc1 [Compound 13]	29		inhibition at 30 µM (human P2X7; [3]): ≤ 25%
NC(=O)CN1C(=O)C(O)(CC(=O)c2cccc(N)c2)c2ccccc21 (stereo not drawn) [Compound 12]	12		
